From US10774083B2, “Heterocyclic amide compound” (TAKEDA PHARMACEUTICAL COMPANY LIMITED, priority 2016, dated 2020)

How the values were obtained:
[1] = molecular target: T1, human PRS protein (His-Avi-hEPRS (998-1512)) (Homo sapiens, UniProt P07814); test: PRS inhibitory activity ([32P]pyrophosphate exchange enzyme assay); type: biochemical; settings: 300 nM test compound; read-out: inhibitory rate (%) of PRS
T1 construct: to construct His-Avi-hEPRS (998-1512) expression plasmid; His tag (N); Avi tag (N); TEV cleavage site (ENLYFQG, then S; inferred from the forward primer hEPRS-TEV-NheF) (N); made in house; host or cells: E. coli BL21(DE3)
T1 sequence (P07814 998-1512 limits assumed): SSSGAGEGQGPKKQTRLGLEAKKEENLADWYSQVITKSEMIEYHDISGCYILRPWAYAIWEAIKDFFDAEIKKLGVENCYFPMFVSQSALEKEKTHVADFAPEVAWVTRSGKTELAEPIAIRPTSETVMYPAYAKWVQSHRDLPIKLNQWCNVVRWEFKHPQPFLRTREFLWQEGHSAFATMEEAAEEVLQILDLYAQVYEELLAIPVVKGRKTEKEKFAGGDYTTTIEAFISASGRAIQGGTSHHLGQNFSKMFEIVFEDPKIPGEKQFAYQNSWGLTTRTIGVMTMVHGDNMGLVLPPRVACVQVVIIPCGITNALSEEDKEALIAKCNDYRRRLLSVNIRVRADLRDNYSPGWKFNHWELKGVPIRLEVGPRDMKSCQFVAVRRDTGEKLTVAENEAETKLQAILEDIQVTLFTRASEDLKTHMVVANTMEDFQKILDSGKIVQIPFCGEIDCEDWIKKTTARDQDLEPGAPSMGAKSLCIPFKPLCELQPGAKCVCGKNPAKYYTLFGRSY
Outline: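 Compound was pre-incubated 60 min with 40 nM His-Avi-hEPRS (998-1512) (stock, E. coli-expressed) in Tris pH 7.5/KCl/DTT/Tween/MgCl2. Reaction began with substrate mix containing 300 μM ATP, 160 μM L-proline, 400 μM [32P]pyrophosphate (stock levels) and ran 30 min at room temperature. Charcoal-bound radioactivity was counted; inhibition was relative to no-reaction control.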

[2] = system: human ovarian cancer cells A2780; test: proliferation inhibitory activity against human ovarian cancer cell A2780 (CellTiter-Glo); type: cell-based; settings: A2780, 72 h, 1 μM test compound, 3 days of culture, read-out: proliferation inhibitory rate (%) of A2780 cells
Description: The proliferation inhibitory activity of the compound of the present invention against human ovarian cancer cell A2780 was evaluated by the following method.
Human ovarian cancer cells A2780 were seeded in a 384 well culture plate at 1000 cells in 30 μL of medium per well by using RPMI-1640 medium (Wako Pure Chemical Industries, Ltd.) containing 10% fetal bovine serum and penicillin/streptomycin. The next day, 10 μL of RPMI-1640 medium containing the test compound was added to the cells. After 3 days of culture, 20 μL of CellTiter-Glo Luminescent Cell Viability Assay solution (Promega) was added. The luminescence signal was measured using EnVision (PerkinElmer) and the inhibitory rate (%) of the test compound was calculated with a well free of seeding of cell as 100% inhibition.

Which results are given for `Cn1cc(-c2cc(F)cc(CNC(=O)c3ncnc4nc(C5CCCC5)n(C)c34)c2)ccc1=O` [Example 4, 8-cyclopentyl-N-(3-fluoro-5-(1-methyl-6-oxo-1,6-dihydropyridin-3-yl)benzyl)-7-methyl-7H-purine-6-carboxamide]?
inhibition at 0.3 µM [1]: 101%; inhibition at 1 µM [2]: 99%

With `Cn1ccc(-c2cc(F)cc(CNC(=O)c3nccc4nc(C5CCCC5)n(C)c34)c2)cc1=O` [Example 98, 2-cyclopentyl-N-(3-fluoro-5-(1-methyl-2-oxo-1,2-dihydropyridin-4-yl)benzyl)-3-methyl-3H-imidazo[4,5-c]pyridine-4-carboxamide] as the compound, how does the inhibition at 0.3 µM [1] read?
The inhibition at 0.3 µM was 101%.

And the inhibition at 1 µM [2]?
Its inhibition at 1 µM is 98%.

How did the inhibition at 0.3 µM [1] turn out when `Cc1cc(N2CCC(C#N)(C3CCC3)C2=O)cc(C(=O)NCc2cc(F)cc(-c3cnn(C)c3)c2)n1` (stereo not drawn) [Example 229, 4-(3-cyano-3-cyclobutyl-2-oxopyrrolidin-1-yl)-N-(3-fluoro-5-(1-methyl-1H-pyrazol-4-yl)benzyl)-6-methylpyridine-2-carboxamide] was run?
Its inhibition at 0.3 µM is 100%.

What about the inhibition at 1 µM [2] of the same compound?
Its inhibition at 1 µM is 91%.

With `Cc1cc(N2CC[C@@](C#N)(C3CC3)C2=O)cc(C(=O)NCc2cc(F)cc(-c3ccc(=O)n(C)c3)c2)n1` [Example 169, 4-((3S)-3-cyano-3-cyclopropyl-2-oxopyrrolidin-1-yl)-N-(3-fluoro-5-(1-methyl-6-oxo-1,6-dihydropyridin-3-yl)benzyl)-6-methylpyridine-2-carboxamide] as the compound, how does the inhibition at 0.3 µM [1] read?
Its inhibition at 0.3 µM is 100%.

What about the inhibition at 1 µM [2] of the same compound?
Its inhibition at 1 µM is 98%.

How did the inhibition at 0.3 µM [1] turn out when `Cn1cc(-c2cc(F)cc(CNC(=O)c3nccc4nc(C5CCCC5)n(C)c34)c2)nn1` [Example 91, 2-cyclopentyl-N-(3-fluoro-5-(1-methyl-1H-1,2,3-triazol-4-yl)benzyl)-3-methyl-3H-imidazo[4,5-c]pyridine-4-carboxamide] was run?
Its inhibition at 0.3 µM is 101%.

What about the inhibition at 1 µM [2] of the same compound?
Its inhibition at 1 µM is 98%.

With `O=C(NCc1cc(F)cc(-c2cnn(C3CC3)c2)c1)c1ncnc2nc(C3CCCC3)[nH]c12` [Example 14, 8-cyclopentyl-N-(3-(1-cyclopropyl-1H-pyrazol-4-yl)-5-fluorobenzyl)-7H-purine-6-carboxamide] as the compound, how does the inhibition at 0.3 µM [1] read?
The inhibition at 0.3 µM was 100%.

And the inhibition at 1 µM [2]?
Its inhibition at 1 µM is 97%.

Which inhibition at 0.3 µM [1] does the source give for `Cn1cc(-c2cc(F)cc(CNC(=O)c3ncnc4nc(C5CCC(F)(F)C5)[nH]c34)c2)cn1` (stereo not drawn) [Example 40, 8-(3,3-difluorocyclopentyl)-N-(3-fluoro-5-(1-methyl-1H-pyrazol-4-yl)benzyl)-7H-purine-6-carboxamide] here?
The inhibition at 0.3 µM was 102%.

What about the inhibition at 1 µM [2] of the same compound?
Its inhibition at 1 µM is 98%.

`Cn1cc(-c2cc(F)cc(CNC(=O)c3nc(N)nc4nc(C5CCCC5)[nH]c34)c2)cn1` [Example 42, 2-amino-8-cyclopentyl-N-(3-fluoro-5-(1-methyl-1H-pyrazol-4-yl)benzyl)-7H-purine-6-carboxamide] was tested. Which inhibition at 0.3 µM [1] did it give?
Its inhibition at 0.3 µM is 98%.

And the inhibition at 1 µM [2]?
The inhibition at 1 µM was 59%.

What does the source list for `Cc1cc(N2CC[C@@](C#N)(C3CC3)C2=O)cc(C(=O)NCc2cc(F)cc(-c3cnn(C4CC4)c3)c2)n1` [Example 168, 4-((3S)-3-cyano-3-cyclopropyl-2-oxopyrrolidin-1-yl)-N-(3-(1-cyclopropyl-1H-pyrazol-4-yl)-5-fluorobenzyl)-6-methylpyridine-2-carboxamide]?
inhibition at 0.3 µM [1]: 100%; inhibition at 1 µM [2]: 98%

With `Cc1cc(N2CCC(C)(C)C2=O)cc(C(=O)NCc2cc(F)cc(-c3cnn(C)c3)c2)n1` [Example 165, 4-(3,3-dimethyl-2-oxopyrrolidin-1-yl)-N-(3-fluoro-5-(1-methyl-1H-pyrazol-4-yl)benzyl)-6-methylpyridine-2-carboxamide] as the compound, how does the inhibition at 0.3 µM [1] read?
The inhibition at 0.3 µM was 100%.

And the inhibition at 1 µM [2]?
The inhibition at 1 µM was 75%.

Which results are given for `Cn1cc(-c2cc(F)cc(CNC(=O)c3ncnc4nc(C5(F)CCCC5)[nH]c34)c2)cn1` [Example 27, 8-(1-fluorocyclopentyl)-N-(3-fluoro-5-(1-methyl-1H-pyrazol-4-yl)benzyl)-7H-purine-6-carboxamide]?
inhibition at 0.3 µM [1]: 99%; inhibition at 1 µM [2]: 97%

How did the inhibition at 0.3 µM [1] turn out when `COc1nc(C(=O)NCc2cc(F)cc(-c3cnn(C)c3)c2)c2[nH]c(C3CCCC3)nc2n1` [Example 18, 8-cyclopentyl-N-(3-fluoro-5-(1-methyl-1H-pyrazol-4-yl)benzyl)-2-methoxy-7H-purine-6-carboxamide] was run?
Its inhibition at 0.3 µM is 99%.

And the inhibition at 1 µM [2]?
The inhibition at 1 µM was 77%.

How did the inhibition at 0.3 µM [1] turn out when `Cc1cc(N2CCC3(CCC3)C2=O)cc(C(=O)NCc2cc(F)cc(-c3cnn(C)c3)c2)n1` [Example 232, N-(3-fluoro-5-(1-methyl-1H-pyrazol-4-yl)benzyl)-6-methyl-4-(5-oxo-6-azaspiro[3.4]oct-6-yl)pyridine-2-carboxamide] was run?
The inhibition at 0.3 µM was 100%.

What about the inhibition at 1 µM [2] of the same compound?
The inhibition at 1 µM was 64%.

What does the source list for `Cn1cc(-c2cc(F)cc(CNC(=O)c3nccc4nc(C5CCCC5)n(C)c34)c2)ccc1=O` [Example 92, 2-cyclopentyl-N-(3-fluoro-5-(1-methyl-6-oxo-1,6-dihydropyridin-3-yl)benzyl)-3-methyl-3H-imidazo[4,5-c]pyridine-4-carboxamide]?
inhibition at 0.3 µM [1]: 100%; inhibition at 1 µM [2]: 99%

With `Cn1cc(-c2cc(F)cc(CNC(=O)c3nccc4nc(C5CCCC5)n(CC(=O)O)c34)c2)cn1` [Example 127, (2-cyclopentyl-4-((3-fluoro-5-(1-methyl-1H-pyrazol-4-yl)benzyl)carbamoyl)-3H-imidazo[4,5-c]pyridin-3-yl)acetic acid] as the compound, how does the inhibition at 0.3 µM [1] read?
The inhibition at 0.3 µM was 101%.

And the inhibition at 1 µM [2]?
Its inhibition at 1 µM is 70%.

`Cc1cc(N2CC[C@@](C#N)(C3CC3)C2=O)cc(C(=O)NCc2cc(F)cc(-c3cnc(C)s3)c2)n1` [Example 187, 4-((3S)-3-cyano-3-cyclopropyl-2-oxopyrrolidin-1-yl)-N-(3-fluoro-5-(2-methyl-1,3-thiazol-5-yl)benzyl)-6-methylpyridine-2-carboxamide] was tested. Which inhibition at 0.3 µM [1] did it give?
The inhibition at 0.3 µM was 99%.

What about the inhibition at 1 µM [2] of the same compound?
The inhibition at 1 µM was 65%.

What does the source list for `Cc1cc(N2CC[C@@](C#N)(C3CC3)C2=O)cc(C(=O)NCc2cc(Cl)cc(-c3cnn(C)c3)c2)n1` [Example 216, N-(3-chloro-5-(1-methyl-1H-pyrazol-4-yl)benzyl)-4-((3S)-3-cyano-3-cyclopropyl-2-oxopyrrolidin-1-yl)-6-methylpyridine-2-carboxamide]?
inhibition at 0.3 µM [1]: 101%; inhibition at 1 µM [2]: 89%

Which results are given for `Cn1cc(-c2cc(F)cc(CNC(=O)c3ncnc4nc(C5CCC5)[nH]c34)c2)cn1` [Example 58, 8-cyclobutyl-N-(3-fluoro-5-(1-methyl-1H-pyrazol-4-yl)benzyl)-7H-purine-6-carboxamide]?
inhibition at 0.3 µM [1]: 99%; inhibition at 1 µM [2]: 66%

Which inhibition at 0.3 µM [1] does the source give for `Cn1cc(-c2cc(F)cc(CNC(=O)c3nccc4nc(C5CCOC5)[nH]c34)c2)cn1` (stereo not drawn) [Example 103, N-(3-fluoro-5-(1-methyl-1H-pyrazol-4-yl)benzyl)-2-(tetrahydrofuran-3-yl)-3H-imidazo[4,5-c]pyridine-4-carboxamide] here?
Its inhibition at 0.3 µM is 99%.

And the inhibition at 1 µM [2]?
The inhibition at 1 µM was 73%.

`Cc1cc(N2CC[C@@](C#N)(C3CC3)C2=O)cc(C(=O)NCc2cc(F)cc(-c3cnn(C4CCOCC4)c3)c2)n1` [Example 182, 4-((3S)-3-cyano-3-cyclopropyl-2-oxopyrrolidin-1-yl)-N-(3-fluoro-5-(1-(tetrahydro-2H-pyran-4-yl)-1H-pyrazol-4-yl)benzyl)-6-methylpyridine-2-carboxamide] was tested. Which inhibition at 0.3 µM [1] did it give?
The inhibition at 0.3 µM was 101%.

What about the inhibition at 1 µM [2] of the same compound?
Its inhibition at 1 µM is 97%.

How did the inhibition at 0.3 µM [1] turn out when `Cn1cc(-c2cc(F)cc(CNC(=O)c3nccc4nc(C5CCCC5)[nH]c34)c2)nn1` [Example 89, 2-cyclopentyl-N-(3-fluoro-5-(1-methyl-1H-1,2,3-triazol-4-yl)benzyl)-3H-imidazo[4,5-c]pyridine-4-carboxamide] was run?
Its inhibition at 0.3 µM is 101%.

What about the inhibition at 1 µM [2] of the same compound?
Its inhibition at 1 µM is 98%.

For `Cn1cc(-c2cc(F)cc(CNC(=O)c3nccc4nc(Cc5ccccc5)[nH]c34)c2)cn1` [Example 109, 2-benzyl-N-(3-fluoro-5-(1-methyl-1H-pyrazol-4-yl)benzyl)-3H-imidazo[4,5-c]pyridine-4-carboxamide], which inhibition at 0.3 µM [1] is on record?
Its inhibition at 0.3 µM is 100%.

And the inhibition at 1 µM [2]?
Its inhibition at 1 µM is 84%.

Which inhibition at 0.3 µM [1] does the source give for `Cn1cc(-c2cc(F)cc(CNC(=O)c3ncnc4nc(C5CCCC5)n(C)c34)c2)cn1` [Example 3, 8-cyclopentyl-N-(3-fluoro-5-(1-methyl-1H-pyrazol-4-yl)benzyl)-7-methyl-7H-purine-6-carboxamide] here?
Its inhibition at 0.3 µM is 101%.

What about the inhibition at 1 µM [2] of the same compound?
Its inhibition at 1 µM is 99%.

What does the source list for `Cc1cn(-c2cc(F)cc(CNC(=O)c3ncnc4nc(C5CCCC5)n(C)c34)c2)nc1C` [Example 56, 8-cyclopentyl-N-(3-(3,4-dimethyl-1H-pyrazol-1-yl)-5-fluorobenzyl)-7-methyl-7H-purine-6-carboxamide]?
inhibition at 0.3 µM [1]: 102%; inhibition at 1 µM [2]: 99%
